Laboratory results taken from US10399958B2, “PPAR agonists, compounds, pharmaceutical compositions, and methods of use thereof” (Mitobridge, Inc., priority 2015, dated 2019).
Like-named read-outs stand apart in the source and are kept apart here.

Legend:
mdx mouse = test: Endurance running assay (treadmill) in mdx mouse model of Duchenne Muscular Dystrophy; type: in vivo; conditions: mdx mice, 10 or 30 mg per kg PO, 34-35 days, FIG. 3
Source text: PPARδ is activated in response to exercise where it will elicit an increase in fatty acid utilization. Duchenne Muscular Dystrophy is a progressive, early-onset degenerative muscle disease with associated muscle function deficits resulting from the loss of the protein dystrophin. Fatty acid metabolism and altered mitochondrial function are reported to be an aspect of the disease.
C57BL/10ScSn-Dmdmdx/J and C57BL/10ScSnJ mice ˜5-7 weeks of age were received and housed singly in polycarbonate cages. Animals were fed standard chow and had access to feed and water at all times ad libitum. […] Vehicle was dosed for control groups. All the animals were dosed by oral gavage (PO) for 34-35 days. The mice were dosed at 8 AM on the last in-life study day with the necropsy started 2 hours after the final dose.
Mice were acclimated to a moving belt treadmill in a series of acclimation runs before evaluation for overall endurance at a set maximal speed. Each mouse was run in a separate lane that contained an electric stimulating grid. The number of visits to the electric stimulating grid and the number of shocks each animal received were recorded by the instrument and a technician evaluated the animal during the run to determine the time and distance to exhaustion. The maximum speed for all the three endurance runs was capped at 20 m/min. […]

[1] = system: DMD human skeletal muscle cells; test: Mitochondrial biogenesis (BrdU labeling); type: cell-based; conditions: DMD patient cells, treated from day 4 of differentiation, FIG. 2
Procedure: DMD human skeletal muscle cells were plated into 96 well plates. Media was changed to Differentiation Medium and cells were allowed to differentiate for 7 days. […] Three days later cells were labeled with bromodeoxyuridine (BrdU) in culture media for 2 hours. Following the incubation, cells were washed, and then incubated with anti-BrdU antibody overnight at 4° C. The next day, samples were washed incubated with anti-mouse IgG HRP for 45 min at 37° C., and then washed. Optical density was measured at 450 nm wavelength on a SpectraMax M5 (Molecular Devices).
Data was analyzed in Graph Pad Prism. Normality of distribution was determined by D'Agostino-Pearson omnibus normality test. If the samples were normally distributed, they were analyzed by One-Way ANOVA followed by a post hoc Dunnett's test vs DMSO control cells or unpaired two tailed T-test. If the samples were not normally distributed, then a Kruskal-Wallis test was used to determine significance.

mdx mouse muscle = test: Histology pathology assessment of muscle in mdx mice; type: in vivo
Source text: Similar to the muscle pathology in Duchenne Muscular Dystrophy, mdx mice have dystrophic pathologies in skeletal muscle that is apparent soon after birth. Key aspects of this phenotype evident by pathology are the loss of myofibers through apoptosis/necrosis, evidence of regenerating muscle fibers, infiltrating immune cells, and increased muscle fibrosis.
Animals and dosing were as previously described. See Example 4.
Quadriceps, gastrocnemius and tibialis anterior muscles were harvested at necropsy, and fixed by immersion in 10% neutral buffered formalin and embedded in paraffin. Tissues were sectioned at […] from each block and slides were evaluated by a board certified veterinary pathologist. Histopathologic evaluation included qualitative and semi-quantitative evaluation for myofiber necrosis, inflammation, myofiber regeneration and interstitial fibrosis, as outlined in Tables 1, 2, and 3, respectively.
(§1) Diaphragm weights, histology scores and immunofluorescence data were tested using a parametric test if normality was confirmed by Shapiro-Wilk normality test (unpaired t-test for 2 groups or One way ANOVA followed by post hoc Dunn's multiple comparison testing versus the mdx vehicle group for 3 groups) and a Mann-Whitney test (2 groups) or Kruskal-Wallis One-Way ANOVA (non-parametric) followed by post hoc Dunn's multiple comparison testing versus the mdx vehicle group (3 groups) if the data were not normally distributed.

[2] = Pharmacokinetic (PK) screening (i.v.) in male CD1 mice; type: in vivo, mouse; conditions: male, CD1, mouse, plasma, iv, 1 mg/kg, I.V. 1 mg/kg dose, plasma
Procedure: In this example, the intravenous PK profile of several PPARδ agonists disclosed herein in male CD1 mice was determined. Similar methods can be used to analyze other compounds provided herein. All compounds were administered separately to CD1 mice at 1 mg/kg (i.v.), except the comparator compound to 2c was administered at 3 mg/kg (i.v.), as noted below.

[3] = system: mdx mouse quadriceps muscle; test: Immunofluorescent (IgM) assessment of muscle necrosis in mdx mice; type: in vivo; conditions: IgM immunofluorescence, FIG. 5
Procedure: Precut paraffin section slides were deparaffinized and incubated with AlexaFluor 488 conjugated wheat germ agglutinin followed by an incubation with Alexa 568 conjugated anti-mouse IgM (abcam, Product #ab175702). Slides were washed and mounted with coverslips using ProLong Diamond Antifade Mountant with DAPI. Imaging was performed on a Nikon fluorescent microscope using a 40× objective and composite images were stitched together using NIS Elements Software, V4.4 (Nikon, Tokyo, Japan). Analysis was completed using Image J 1.50b, Java 1.8.0_60 (64 bit).
as §1
Quadriceps muscle sections were labeled fluorescently to detect IgM antibody accumulation within damaged myofibers, an indication of loss of myofiber integrity and active necrosis. Each muscle section was imaged in its entirety and the number and size of necrotic regions was measured. […]

mdx mouse diaphragm = test: Diaphragm fibrosis by hydroxyproline assay in mdx mice; type: in vivo; conditions: FIG. 10
Procedure: Diaphragm samples were harvested carefully and the central tendon was cut away to ensure hydroxyproline signal was derived from muscle and not collagen-rich tendon. Hydroxyproline assay was performed according to the manufacturers' instructions (Sigma-Aldrich Hydroxyproline Assay Kit). Final values were calculated as follows: […]
as §1
Diaphragms were evaluated for fibrosis by measuring hydroxyproline, an amino acid unique to collagen, in digested muscle. Mdx mice were confirmed to have increased fibrosis versus non-dystrophic control mice (FIG. 9).

[4] = system: Sprague-Dawley rat acute kidney injury; test: Ischemia-reperfusion kidney injury in rats, plasma creatinine; type: in vivo; conditions: 30 mg/kg orally 4 hours after surgery, blood 24 hours after reperfusion, FIG. 11
Procedure: Sprague-Dawley male rats approximately 280-300 g, with ad libitum access to standard feed and water were used in these experiments. Rats were anesthetized with isoflurane and placed ventrally on a temperature controlled heated surgical platform. A skin incision was made on the dorsal surface, exposing both kidneys through flank incisions. Vascular clips were applied to both renal pedicles and occlusion lasted 45 minutes. After 45 min, the clips were removed, kidneys were monitored for successful reperfusion, and surgical sites were sutured. The sham group was subjected to similar surgical procedures, except that the occluding clamps were not applied. Four independent studies, testing each compound were performed. Compounds were formulated as a fresh daily suspension in 0.25% sodium carboxymethyl-cellulose, 0.25% Tween-80 in purified water. Compounds were dosed orally at 30 mg/kg 4 hours after animals awoke from surgery and sham surgery and IRI control animals were similarly dosed with vehicle.
Twenty-four (24) hours after reperfusion, blood was collected in K2 EDTA tubes by retro-orbital bleeding from all groups under mild isoflurane anesthesia. Plasma was separated by centrifugation at 3000 rpm for 10 minutes at 4° C. Plasma creatinine was analyzed using a fully automated clinical biochemistry analyzer (Siemens Dimension® Xpand® Plus Integrated Chemistry System)
Creatinine was tested for normal distribution in all groups via a D'Agostino-Pearson omnibus normality test and a Shapiro-Wilk normality test. Normally distributed data was subjected to an unpaired, two-tailed t test. Non-normally distributed data was subjected to a Mann-Whitney test (non-parametric). Statistical significance is determined by p<0.05 of IRI-vehicle compared to compound treated groups.

SMILES: Cc1cnc(-c2ccc(C(F)(F)F)cc2)n1Cc1ccccc1OCCC[C@@H](C)CC(=O)O [Compound 2d, (R)-3-methyl-6-(2-((5-methyl-2-(4-(trifluoromethyl)phenyl)-1H-imidazol-1-yl)methyl)phenoxy)hexanoic acid]
- Treadmill running distance (mdx mouse): increased distance over mdx vehicle treated group mice
- Mitochondrial biogenesis [1]: increased in a dose-dependent manner
- Pathology scored necrosis, quadriceps (mdx mouse muscle; 10 or 30 mg per kg PO, 34-35 days, FIG. 4): Decreased necrosis
- Inflammation, quadriceps muscle (mdx mouse muscle; FIG. 6): Decreased inflammation
- Quadriceps muscle regeneration (mdx mouse muscle; FIG. 7): increases
- Diaphragm muscle necrosis (mdx mouse muscle; FIG. 8): reduced diaphragm necrosis
- clearance ([2]; read-out: CL): 25 mL/min/kg
- clearance ([2]; read-out: High or Low CL): < 85 mL/min/kg
- Necrotic region size, quadriceps [3]: decreased
- Diaphragm fibrosis (hydroxyproline) (mdx mouse diaphragm): reduced fibrosis
- Plasma creatinine [4]: reduce plasma creatinine
